In patent publication US11840686B2, “Modulation of prekallikrein (PKK) expression” (Ionis Pharmaceuticals, Inc., priority 2013, dated 2023):
Strand notation (5' to 3'): a small letter for the sugar, then the base; units joined by * are phosphorothioate-linked, units joined directly phosphodiester-linked; [ ] holds rarer units or linkages, { } end groups; capitals alone tell only the bases. e = 2'-O-(2-methoxyethyl) (MOE); [5mC] = 5-methylcytosine; d = 2'-deoxy (DNA)

test system: human PKK mRNA; assay: Antisense inhibition of human PKK mRNA in HepaRG cells, 5,000 nM (Example 2); format: cell-based; details: HepaRG cells, 5,000 nM antisense oligonucleotide; 5-10-5 gapmers; Table 16
In short: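 Percent inhibition of PKK mRNA is relative to untreated control, with qRT-PCR (probe set RTS3454) values adjusted to total RNA by RIBOGREEN. Oligonucleotides, fully phosphorothioate 2′-MOE gapmers, were delivered at 5,000 nM by electroporation into 20,000 HepaRG cells/well for about 24 h.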

Substance | % inhibition
547708 (antisense eG*e[5mC]*e[5mC]*eA*eG*dG*dA*dG*dA*d[5mC]*dA*dG*d[5mC]*d[5mC]*d[5mC]*eT*eA*e[5mC]*eT*e[5mC]) [compound 547708] | 67%
547681 (antisense eA*eA*eT*eA*eT*d[5mC]*dA*d[5mC]*dT*dG*dT*dA*d[5mC]*d[5mC]*dT*eA*eT*eA*eT*e[5mC]) [compound 547681] | 6%
547701 (antisense e[5mC]*eA*eT*e[5mC]*eA*d[5mC]*dT*dG*dT*dA*d[5mC]*d[5mC]*dT*dA*dT*eA*eA*e[5mC]*eT*eA) [compound 547701] | 49%

same assay, conditions: HepaRG cells, 5,000 nM antisense oligonucleotide; 5-10-5 gapmers; Table 17

Substance | % inhibition
547008 (eT*eT*eG*eG*eT*dG*dG*dT*dG*dG*dG*dA*dT*dT*dG*eG*eT*eG*eG*eT; antisense) [compound 547008] | 81%
547772 (antisense e[5mC]*eT*eG*eT*eG*d[5mC]*dT*d[5mC]*d[5mC]*d[5mC]*dG*dG*d[5mC]*d[5mC]*dA*eT*eT*eA*eG*e[5mC]) [compound 547772] | 0%
547016 (eG*eT*eA*eG*eG*dT*dG*dG*dT*dG*dG*dG*dA*dT*dT*eG*eG*eT*eG*eG; antisense) [compound 547016] | 62%
547764 (antisense e[5mC]*e[5mC]*eA*e[5mC]*e[5mC]*dT*dT*d[5mC]*dT*dT*dA*d[5mC]*dA*dT*dA*eT*eG*e[5mC]*eT*eA) [compound 547764] | 24%
547738 (eT*eT*eG*eG*eT*dG*dG*dT*dG*dG*dG*dA*dT*dT*dG*eG*eT*eG*e[5mC]*eT; antisense) [compound 547738] | 41%
547039 (eT*e[5mC]*eT*e[5mC]*eT*dA*dT*dA*d[5mC]*dA*dG*d[5mC]*dT*dG*dG*eG*e[5mC]*eA*e[5mC]*eA; antisense) [compound 547039] | 0%

same assay, conditions: HepaRG cells, electroporation with 5,000 nM antisense oligonucleotide, approximately 24 hours, PKK mRNA by RT-PCR (RTS3454), relative to untreated control cells; Table 5 experiment

Substance | % inhibition
547313 (antisense eG*eT*eT*e[5mC]*eG*dA*dT*dG*dT*dA*d[5mC]*dT*dT*dT*dT*eG*eG*e[5mC]*eA*eG) [compound 547313] | 73%
547306 (antisense eA*eG*e[5mC]*eA*eA*d[5mC]*d[5mC]*dA*dA*dA*d[5mC]*d[5mC]*dT*dT*dT*eT*e[5mC]*eT*e[5mC]*e[5mC]) [compound 547306] | 62%
546137 (eA*eT*eT*eG*e[5mC]*dT*dT*d[5mC]*dT*dT*dG*dG*dA*dG*dG*eT*eG*eA*eG*eT; antisense) [compound 546137] | 76%
547304 (antisense e[5mC]*eT*eT*eT*eT*d[5mC]*dT*d[5mC]*d[5mC]*dA*dT*dG*dT*d[5mC]*dA*eT*eT*eG*eA*eT) [compound 547304] | 71%
547312 (antisense eA*eT*eG*eT*eA*d[5mC]*dT*dT*dT*dT*dG*dG*d[5mC]*dA*dG*eG*eG*eT*eT*e[5mC]) [compound 547312] | 46%
546167 (e[5mC]*eT*e[5mC]*e[5mC]*eA*dT*dG*dT*d[5mC]*dA*dT*dT*dG*dA*dT*eT*eG*eA*eA*e[5mC]; antisense) [compound 546167] | 73%

same assay, conditions: HepaRG cells, electroporation with 5,000 nM antisense oligonucleotide, approximately 24 hours, PKK mRNA by RT-PCR (RTS3454), relative to untreated control cells; Table 6 experiment

Substance | % inhibition
546212 (antisense eA*eG*eA*eT*eG*d[5mC]*dT*dG*dG*dA*dA*dG*dA*dT*dG*eT*eT*e[5mC]*eA*eT) [compound 546212] | 48%
547348 (antisense eA*e[5mC]*eA*e[5mC]*eT*dG*d[5mC]*dT*dA*dA*d[5mC]*d[5mC]*dT*dT*dA*eG*eA*e[5mC]*eA*e[5mC]) [compound 547348] | 83%
547336 (antisense eT*eT*eT*eA*eT*dA*dA*dA*dT*dG*dT*d[5mC]*dT*d[5mC]*dG*eA*eT*eG*eG*e[5mC]) [compound 547336] | 81%

same assay, conditions: HepaRG cells, electroporation, 5,000 nM antisense oligonucleotide, approx. 24 hours, primer probe set RTS3454, relative to untreated control cells; Table 11

Substance | % inhibition
546364 (antisense eG*eG*eA*e[5mC]*eT*dG*d[5mC]*dT*dT*d[5mC]*dT*d[5mC]*dA*dT*dG*e[5mC]*eT*eG*eG*eT) [compound 546364] | 61%
546372 (antisense eG*eA*eA*eT*eT*dT*dG*dA*d[5mC]*dT*dT*dG*dA*dA*d[5mC]*eT*e[5mC]*eA*eG*eG) [compound 546372] | 49%
546392 (eG*eA*e[5mC]*e[5mC]*eT*d[5mC]*dG*d[5mC]*dA*dT*dT*dG*dT*d[5mC]*dA*eG*e[5mC]*e[5mC]*e[5mC]*e[5mC]; antisense) [compound 546392] | 72%
547500 (antisense e[5mC]*e[5mC]*eT*eA*eG*dA*d[5mC]*dT*d[5mC]*dT*dG*dG*dA*d[5mC]*dT*eG*e[5mC]*eT*eT*e[5mC]) [compound 547500] | 65%
547516 (antisense eG*eA*eT*eG*e[5mC]*dA*dA*dA*dG*dA*dA*dG*dA*dT*dG*e[5mC]*e[5mC]*eA*e[5mC]*eT) [compound 547516] | 48%
547505 (antisense eG*eA*e[5mC]*eT*eT*dG*dA*dA*d[5mC]*dT*d[5mC]*dA*dG*dG*dT*eT*eG*eT*eA*eA) [compound 547505] | 69%

same assay, conditions: HepaRG cells, electroporation, 5,000 nM antisense oligonucleotide, approx. 24 hours, primer probe set RTS3454, relative to untreated control cells; Table 12

Substance | % inhibition
546411 (eA*eT*eA*eT*eT*dG*dA*d[5mC]*dT*dT*dT*dG*dG*dG*dT*eT*eT*e[5mC]*eT*eG; antisense) [compound 546411] | 56%
547546 (antisense e[5mC]*eA*eT*eA*e[5mC]*dT*d[5mC]*dG*d[5mC]*d[5mC]*dT*dT*dT*dG*dT*eG*eA*eT*eG*e[5mC]) [compound 547546] | 11%
547542 (antisense eA*eT*eA*e[5mC]*eT*d[5mC]*dG*d[5mC]*d[5mC]*dT*dT*dT*dG*dT*dG*eA*e[5mC]*eT*e[5mC]*eG) [compound 547542] | 35%
546698 (eT*eG*e[5mC]*eA*eG*dA*dG*dT*dG*dT*d[5mC]*dA*dT*d[5mC]*dT*eG*e[5mC]*eG*eA*eA; antisense) [compound 546698] | 59%
547533 (antisense eT*eT*eT*eT*eG*d[5mC]*dT*dT*dG*dG*d[5mC]*dT*dT*d[5mC]*dA*eA*eT*eA*eT*eT) [compound 547533] | 23%

same assay, conditions: Table 7; HepaRG cells, electroporation with 5,000 nM antisense oligonucleotide, approx. 24 hours; PKK mRNA by RT-PCR (RTS3454), relative to untreated control cells

Substance | % inhibition
547370 (e[5mC]*eA*eA*eA*eA*dG*d[5mC]*dA*dT*d[5mC]*dT*dG*dG*dA*dG*eT*eG*eA*eG*eA; antisense) [compound 547370] | 73%

same assay, conditions: Table 8; HepaRG cells, electroporation with 5,000 nM antisense oligonucleotide, approx. 24 hours; PKK mRNA by RT-PCR (RTS3454), relative to untreated control cells

Substance | % inhibition
547440 (antisense eT*e[5mC]*e[5mC]*eT*eA*dT*dG*dA*dG*dT*dG*dA*d[5mC]*d[5mC]*d[5mC]*eT*e[5mC]*e[5mC]*eA*e[5mC]) [compound 547440] | 67%
546267 (e[5mC]*e[5mC]*eT*eT*eA*d[5mC]*dA*dG*dT*d[5mC]*dT*dT*d[5mC]*dT*dG*eG*eG*eA*eG*eT; antisense) [compound 546267] | 72%
547443 (antisense e[5mC]*e[5mC]*eA*e[5mC]*eT*dG*dG*dT*dG*dT*d[5mC]*d[5mC]*dT*dA*dT*eG*eA*eG*eT*eG) [compound 547443] | 70%
547434 (eA*eG*eA*eG*eT*dT*dT*dG*dT*dT*d[5mC]*d[5mC]*dT*d[5mC]*d[5mC]*eA*eA*e[5mC]*eA*eA; antisense) [compound 547434] | 54%
546281 (eG*eT*eA*eA*e[5mC]*d[5mC]*dA*dG*dA*dG*d[5mC]*dT*d[5mC]*d[5mC]*d[5mC]*eT*eT*eG*eT*eG; antisense) [compound 546281] | 85%

same assay, conditions: Table 13; human PKK mRNA in HepaRG cells; 5-10-5 gapmers

Substance | % inhibition
547574 (eA*e[5mC]*eA*e[5mC]*eG*d[5mC]*dA*d[5mC]*dA*dG*dG*dT*d[5mC]*d[5mC]*d[5mC]*eA*eG*eG*eG*e[5mC]; antisense) [compound 547574] | 51%
546811 (eT*eG*eG*eA*e[5mC]*dA*dT*d[5mC]*d[5mC]*dT*dT*d[5mC]*d[5mC]*d[5mC]*d[5mC]*eT*e[5mC]*eG*e[5mC]*eA; antisense) [compound 546811] | 49%
547578 (eG*eT*e[5mC]*e[5mC]*eT*dA*dT*dA*dA*d[5mC]*dT*d[5mC]*dT*dA*dA*e[5mC]*eA*eG*eT*eA; antisense) [compound 547578] | 30%

same assay, conditions: human PKK mRNA, HepaRG cells, 5,000 nM antisense oligonucleotide, Table 18

Substance | % inhibition
548773 (antisense e[5mC]*eT*eA*eT*dA*dA*d[5mC]*dA*dG*dT*dA*dT*d[5mC]*eA*e[5mC]*eT*eG) [compound 548773] | 0%
548764 (antisense eT*eA*eT*e[5mC]*dA*d[5mC]*dT*dG*dT*d[5mC]*d[5mC]*dT*dA*eT*eA*eA*e[5mC]) [compound 548764] | 31%

same assay, conditions: human PKK mRNA, HepaRG cells; 5-10-5 motif oligonucleotides targeting SEQ ID NO: 1 and 10

Substance | % inhibition
547657 (eA*e[5mC]*eA*eA*eT*dA*dT*d[5mC]*dA*d[5mC]*dT*dG*dT*d[5mC]*d[5mC]*eT*eA*eT*eA*eA; antisense) [compound 547657] | 43%
547672 (e[5mC]*eA*eA*eT*eA*dT*d[5mC]*dA*d[5mC]*dT*dG*dT*d[5mC]*d[5mC]*dT*eA*e[5mC]*eA*eA*e[5mC]; antisense) [compound 547672] | 36%
547658 (e[5mC]*eG*eT*eA*e[5mC]*dT*dA*dG*dT*dT*dT*d[5mC]*d[5mC]*dT*dA*eT*eA*eA*e[5mC]*eT; antisense) [compound 547658] | 68%
546892 (eA*e[5mC]*eT*eG*eT*d[5mC]*d[5mC]*dT*dA*dT*dG*dT*d[5mC]*dA*d[5mC]*eT*eG*eT*eA*e[5mC]; antisense) [compound 546892] | 82%
